Source: patent EP0624368A2, “Use of a composition for stimulating the synthesis of glutathione in the manufacture of a medicament for the treatment of acquired immune deficiency syndrome” (priority 1993, dated 1994)

Tests used:
HIV-1 (strain IIIB) [1] = test: MTT assay of protection against acute HIV infection in MT-2 cells; assay type: cell-based; settings: 100 IU/well HIV; for OD readings at 540 nm (MTT assay): MT-2, Day 6 cultures; for Calculated single treatment ED50: MT-2 cells, MTT assay
Description: (§1) Three cell culture systems were used in this study: H-9 cells; MT-2 cells; and normal human peripheral blood mononuclear cells (PBMC). H-9 cells were obtained from Advanced Biotechnology Inc. (ABI). MT-2 cells were obtained from Dr. J. Armstrong of the University of Pittsburgh. MT-2 cells are HTLV-I transformed human T lymphocytes and continuously produce HTLV-I virions. PBMC were obtained from healthy donors, purified by Ficol-Hypaque, and stimulated with PHA mitogen before being used in the efficacy studies. The initial stock of HIV-1 (strain IIIB) used in this study was obtained from ABI and the working stocks were produced.
(§2) Cells were collected, put into tissue culture plates and incubated with different concentrations of drugs in RPMI 1640 tissue culture medium for 20 minutes prior to HIV challenge. Infection was carried out by inoculating 20-100 HIV infectious units (IU)/well inoculum without removing the drugs. The untreated cells exposed to HIV challenge served as positive controls. The normal untreated uninfected cells served as negative controls.
(§3) Both the MTT assay and HIV p24 ELISA were used for evaluation of drug efficacies with MT-2 cells. The MTT assay is based upon the metabolic reduction of the MTT tetrazolium bromide dye in live cells. The OD readings (at 540 nm) obtained from the MTT assay are inversely correlated to the levels of cell mortality due to HIV infection or the cytotoxic effect of drugs. […] The HIV p24 antigen assay measures the level of HIV antigen present in the sample (i.e., culture supernatant).
(§4) When evaluating the efficacies of drugs in H-9 cells and PBMC systems, only HIV p24 assays were used. To calculate the ED₅₀ values, a second order linear regression was applied on the logarithm of the tested doses of different drugs against the OD readings obtained from either MTT assays or HIV p24 assays.

HIV-1 (strain IIIB) [2] = test: HIV p24 antigen assay in H-9 cells (single and combination treatment); assay type: cell-based; settings: 80 IU/well HIV; for OD readings at 450 nm (HIV p24 antigen): H-9
Description: as §1, §2, §4
(§5) Cells were collected, put into tissue culture plates and incubated with different combinations of drugs for 20 minutes prior to HIV infection in the combined treatment studies. Infection was carried out by inoculating 20-100 HIV IU/well inoculum without removing the drugs. The inocula were the same as the ones used in the single drug treatment to obtain the ED₅₀ values. Both MTT assays and HIV p24 antigen assays were used in evaluation of drug effects in MT-2 cells but only HIV p24 antigen assays were used for H-9 cells or PBMC.
(§6) Therefore, if the CI is less than 1, it indicates synergism among the tested drugs. Similarly, if the CI is equal to 1, the effects are additive, while a CI value greater than 1 is indicative of an antagonistic effect.

HIV-1 (strain IIIB) [3] = test: HIV p24 antigen assay in PBMC (single and combination treatment); assay type: cell-based; settings: 50 IU/well HIV
Description: as §1, §2, §4, §5, §6

mice [4] = test: Hematology of terminal blood in mice treated with AZT with or without Procysteine diet; assay type: in vivo; settings: both sexes, AZT 50 or 500 mg/kg body weight/day by gavage 14 days, 1.0% Procysteine® diet in combination groups, p<0.01
Description: On study day 17, the animals were anesthetized with methoxyflurane (in a bell jar). When deeply anesthetized, blood was obtained from the abdominal aorta and transferred for hematological analysis into tubes containing an K₂EDTA suspension.
The following assays were conducted. Leukocyte count Erythrocyte count Total hemoglobin concentration Hematocrit Mean corpuscular volume (MCV) Mean corpuscular hemoglobin (MCH) Mean corpuscular hemoglobin concentration Platelet count Reticulocyte count Differential leukocyte count

mice [5] = test: Bone marrow aspirate count and stem cell colony assay in treated mice; assay type: in vivo
Description: Populations of bone marrow colony forming cells were evaluated. Bone marrow was collected and the stem cell assay conducted, as follows: one femur per mouse was cut at the distal and proximal ends. Using a syringe and 25 gauge needle, 5 mL of IMDM media was flushed through the femur into a collection tube (2.5 mL flushed into one end, then 2.5 ml into the other end). The tube was washed using Iscove's Modified Dulbecco's Media containing 20% fetal bovine serum and the cell concentration was adjusted to the desired count for the colony assay.
In triplicate, the marrow cells were put into a mixture of methylcellulose and plated into 35 mm diameter dishes. The dishes were incubated for approximately 2 weeks (37°C, 5% CO₂, 100% relative humidity) then manually scored under a microscope for myeloid, erythroid, and mixed colonies.

mice [6] = test: Bone marrow smear evaluation in treated mice
HIV-1 (strain IIIB) [7] = test: HIV p24 antigen assay in MT-2 cells (single and combination treatment); assay type: cell-based; settings: 20 IU/well HIV; for OD readings at 450 nm (HIV p24 antigen): MT-2
Description: as §1, §2, §3, §4, §5, §6

[8] = 10⁴ nucleated cells cultured 14 days

Compound: Cc1cn([C@H]2C[C@H](N=[N+]=[N-])[C@@H](CO)O2)c(=O)[nH]c1=O [AZT]
- OD readings at 540 nm (MTT assay) (HIV-1 (strain IIIB) [1]; 0.0025 μM): 0.474
- OD readings at 540 nm (MTT assay) (HIV-1 (strain IIIB) [1]; 0.01 μM): 0.641
- OD readings at 540 nm (MTT assay) (HIV-1 (strain IIIB) [1]; 0.04 μM): 0.678
- OD readings at 540 nm (MTT assay) (HIV-1 (strain IIIB) [1]; 0.16 μM): 0.688
- OD readings at 540 nm (MTT assay) (HIV-1 (strain IIIB) [1]; 0.64 μM): 0.946
- Calculated single treatment ED50 (HIV-1 (strain IIIB) [1]): 55 nM
- OD readings at 450 nm (HIV p24 antigen) (HIV-1 (strain IIIB) [2]; 0.0025 μM): 4.133
- OD readings at 450 nm (HIV p24 antigen) (HIV-1 (strain IIIB) [2]; 0.01 μM): 4.133
- OD readings at 450 nm (HIV p24 antigen) (HIV-1 (strain IIIB) [2]; 0.04 μM): 4.133
- OD readings at 450 nm (HIV p24 antigen) (HIV-1 (strain IIIB) [2]; 0.16 μM): 3.815
- OD readings at 450 nm (HIV p24 antigen) (HIV-1 (strain IIIB) [2]; 0.64 μM): 0.358
- OD readings at 450 nm (HIV p24 antigen) (HIV-1 (strain IIIB) [3]; 0.0025 μM): 3.405
- OD readings at 450 nm (HIV p24 antigen) (HIV-1 (strain IIIB) [3]; 0.01 μM): 2.978
- OD readings at 450 nm (HIV p24 antigen) (HIV-1 (strain IIIB) [3]; 0.04 μM): 0.155
- OD readings at 450 nm (HIV p24 antigen) (HIV-1 (strain IIIB) [3]; 0.16 μM): 0.163
- OD readings at 450 nm (HIV p24 antigen) (HIV-1 (strain IIIB) [3]; 0.64 μM): 0.204
- Calculated single treatment ED50 (HIV-1 (strain IIIB) [3]; p24 assay): 21 nM
- hematological effects in terminal blood (hemoglobin, hematocrit, erythrocyte counts decreased; MCV, MCH increased) (mice [4]): Anemia
- burst forming units-erythroid for marrow cultures (mice [5]; [8]): No group differences
- total colonies and colony forming units-granulocyte/macrophage (mice [5]; [8]): significant induction
- nucleated cells in bone marrow aspirates (mice [5]; AZT 50 or 500 mg/kg body weight/day, compared to controls): significant reduction
- total count of erythroid series cells in bone marrow smears (mice [6]; AZT 50 or 500 mg/kg body weight/day, 1.0% Procysteine® diet in combination groups): reduced total count
- metarubricytes (nonproliferating) in bone marrow smears (mice [6]; AZT-treated): marked reduction
- rubriblasts in bone marrow smears (mice [6]; AZT-treated): mild reduction
- nonproliferating compartment of the myeloid series (mice [6]; bone marrow smears): reduction
- proliferating compartment of the myeloid series (mice [6]; bone marrow smears): significantly increased

Compound: O=c1[nH]cnc2c1ncn2[C@H]1CC[C@@H](CO)O1 [ddI]
- OD readings at 540 nm (MTT assay) (HIV-1 (strain IIIB) [1]; 0.25 μM): 0.551
- OD readings at 540 nm (MTT assay) (HIV-1 (strain IIIB) [1]; 1 μM): 0.603
- OD readings at 540 nm (MTT assay) (HIV-1 (strain IIIB) [1]; 4 μM): 0.561
- OD readings at 540 nm (MTT assay) (HIV-1 (strain IIIB) [1]; 16 μM): 0.880
- OD readings at 540 nm (MTT assay) (HIV-1 (strain IIIB) [1]; 64 μM): 1.135
- Calculated single treatment ED50 (HIV-1 (strain IIIB) [1]): 2778 nM
- OD readings at 450 nm (HIV p24 antigen) (HIV-1 (strain IIIB) [7]; 0.25 μM): 3.351
- OD readings at 450 nm (HIV p24 antigen) (HIV-1 (strain IIIB) [7]; 1 μM): 3.025
- OD readings at 450 nm (HIV p24 antigen) (HIV-1 (strain IIIB) [7]; 4 μM): 0.710
- OD readings at 450 nm (HIV p24 antigen) (HIV-1 (strain IIIB) [7]; 16 μM): 1.167
- OD readings at 450 nm (HIV p24 antigen) (HIV-1 (strain IIIB) [7]; 64 μM): 1.131
- Calculated single treatment ED50 (HIV-1 (strain IIIB) [7]; MT-2 cells, p24 assay): 4069 nM
- OD readings at 450 nm (HIV p24 antigen) (HIV-1 (strain IIIB) [2]; 0.25 μM): 3.984
- OD readings at 450 nm (HIV p24 antigen) (HIV-1 (strain IIIB) [2]; 1 μM): 1.542
- OD readings at 450 nm (HIV p24 antigen) (HIV-1 (strain IIIB) [2]; 4 μM): 0.772
- OD readings at 450 nm (HIV p24 antigen) (HIV-1 (strain IIIB) [2]; 16 μM): 0.716
- OD readings at 450 nm (HIV p24 antigen) (HIV-1 (strain IIIB) [2]; 64 μM): 0.329
- Calculated single treatment ED50 (HIV-1 (strain IIIB) [2]; H-9 cells, p24 assay): 2424 nM
- OD readings at 450 nm (HIV p24 antigen) (HIV-1 (strain IIIB) [3]; 0.25 μM): 2.730
- OD readings at 450 nm (HIV p24 antigen) (HIV-1 (strain IIIB) [3]; 1 μM): 2.658
- OD readings at 450 nm (HIV p24 antigen) (HIV-1 (strain IIIB) [3]; 4 μM): 0.672
- OD readings at 450 nm (HIV p24 antigen) (HIV-1 (strain IIIB) [3]; 16 μM): 0.212
- OD readings at 450 nm (HIV p24 antigen) (HIV-1 (strain IIIB) [3]; 64 μM): 0.098
